Each structure is given as a SMILES string. Starred links: 1 amine or outer side, 2 acyl side, 3 side chain; linkers in the order of their positions; H or OH if unused. Non-standard residues stand in square brackets, D forms with d. Residues, ends and D or L forms follow the SMILES beside them. *: point of attachment. Phe(4-guanidino) = N=C(N)Nc1ccc(C[C@H](N)C(=O)O)cc1; X2 = O=C([C@H](CCCN(C1=NCCN1)C1=NCCN1)N[*:1])[*:2]; Orn(2-imidazolinyl) = N[C@@H](CCCNC1=NCCN1)C(=O)O; X7 = CC(=O)NCS(=O)(=O)C[C@H](N[*:1])C(=O)[*:2]; X3 = O=C([C@H](CCNC1=NCCN1)N[*:1])[*:2]; Phe(4-F) = N[C@@H](Cc1ccc(F)cc1)C(=O)O; X4 = O=C([C@H](CNC1=NCCN1)N[*:1])[*:2]; X5 = CCN(CC)CCC[C@H](N[*:1])C(=O)[*:2]; Bta = N[C@@H](Cc1csc2ccccc12)C(=O)O; cisHyp = O=C(O)[C@@H]1C[C@H](O)CN1; d(hLeu) = CC(C)CC[C@@H](N)C(=O)O; hArg = N=C(N)NCCCC[C@H](N)C(=O)O; Cit = NC(=O)NCCC[C@H](N)C(=O)O; dCha = N[C@H](CC1CCCCC1)C(=O)O; Agb = N=C(N)NCC[C@H](N)C(=O)O; Orn = NCCC[C@H](N)C(=O)O; Aze = O=C(O)[C@@H]1CCN1; Dab = NCC[C@H](N)C(=O)O; Dap = NC[C@H](N)C(=O)O; NPrGly = CCCNCC(=O)O; Ms = CS(=O)(=O)*

In the experiment the target is T1, human C5aR(CD88) (Homo sapiens, UniProt P21730).
T1 construct: expressed in transfected cells; host or cells: rat basophilic leukemia cells (RBL)
T1 sequence (P21730 1-350): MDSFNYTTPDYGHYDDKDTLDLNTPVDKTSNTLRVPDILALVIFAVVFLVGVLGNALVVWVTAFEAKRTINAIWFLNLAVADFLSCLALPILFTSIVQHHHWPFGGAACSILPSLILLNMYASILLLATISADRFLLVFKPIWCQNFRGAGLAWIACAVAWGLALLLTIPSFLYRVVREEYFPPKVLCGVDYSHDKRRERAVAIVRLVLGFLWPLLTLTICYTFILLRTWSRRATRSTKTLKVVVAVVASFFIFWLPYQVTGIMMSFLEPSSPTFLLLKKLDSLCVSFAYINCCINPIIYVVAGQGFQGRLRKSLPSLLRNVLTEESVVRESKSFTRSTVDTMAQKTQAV
Description: Determination of the IC50 value in an enzyme release assay (functional assay, antagonistic activity). Format: cell-based. Conditions: antagonistic activity; IC50 group in enzyme release assay, RBL cells expressing human C5aR(CD88); read-out: activity (group).

Consider `CC(=O)N[C@@H](Cc1ccccc1)C(=O)N[C@@H](CCCNC(N)=O)C(=O)N1CCC[C@H]1C(=O)N[C@H](CCC(C)C)C(=O)N[C@@H](Cc1csc2ccccc12)C(=O)N[C@@H](Cc1ccccc1)C(N)=O` [Compound 211, Ac-Phe-Cit-Pro-hle-Bta-Phe-NH2] (Ac-F[Cit]P[d(hLeu)][Bta]F-NH2), for which the IC50 was in the range of 20 to 50 nM. Take `CC(=O)N[C@@H](Cc1ccccc1)C(=O)N[C@@H](CCCNC(N)=O)C(=O)N[C@@H](CO)C(=O)N[C@H](CCC(C)C)C(=O)N[C@@H](Cc1csc2ccccc12)C(=O)N[C@@H](Cc1ccccc1)C(N)=O` [Compound 212, Ac-Phe-Cit-Ser-hle-Bta-Phe-NH2] (Ac-F[Cit]S[d(hLeu)][Bta]F-NH2): the IC50 is 50 to 200 nM. In the case of `CC(=O)N[C@@H](Cc1ccccc1)C(=O)N[C@@H](CCN)C(=O)N1CC[C@H]1C(=O)N[C@H](CC1CCCCC1)C(=O)N[C@@H](Cc1csc2ccccc12)C(=O)N[C@@H](Cc1ccccc1)C(N)=O` [Compound 213, Ac-Phe-Dab-Aze-cha-Bta-Phe-NH2] (Ac-F[Dab][Aze][dCha][Bta]F-NH2), the IC50 is 20 to 50 nM. `CC(=O)N[C@@H](Cc1ccccc1)C(=O)N[C@@H](CCN)C(=O)N1CC[C@H]1C(=O)N[C@H](CCC(C)C)C(=O)N[C@@H](Cc1csc2ccccc12)C(=O)N[C@@H](Cc1ccccc1)C(N)=O` [Compound 214, Ac-Phe-Dab-Aze-hle-Bta-Phe-NH2] (Ac-F[Dab][Aze][d(hLeu)][Bta]F-NH2): the IC50 was 20 to 50 nM. With `CC(=O)N[C@@H](Cc1ccccc1)C(=O)N[C@@H](CCN)C(=O)N1CCC[C@H]1C(=O)N[C@H](CC1CCCCC1)C(=O)N[C@@H](Cc1csc2ccccc12)C(=O)N[C@@H](Cc1ccccc1)C(N)=O` [Compound 215, Ac-Phe-Dab-Pro-cha-Bta-Phe-NH2] (Ac-F[Dab]P[dCha][Bta]F-NH2), the IC50 was 10 to 20 nM. With `CC(=O)N[C@@H](Cc1ccccc1)C(=O)N[C@@H](CN)C(=O)N1CCC[C@H]1C(=O)N[C@H](CC1CCCCC1)C(=O)N[C@@H](Cc1csc2ccccc12)C(=O)N[C@@H](Cc1ccccc1)C(N)=O` [Compound 216, Ac-Phe-Dap-Pro-cha-Bta-Phe-NH2] (Ac-F[Dap]P[dCha][Bta]F-NH2), the IC50 is 50 to 200 nM. With `CC(=O)NCS(=O)(=O)C[C@H](NC(=O)[C@H](Cc1ccccc1)NC(C)=O)C(=O)N1CCC[C@H]1C(=O)N[C@H](CC1CCCCC1)C(=O)N[C@@H](Cc1csc2ccccc12)C(=O)N[C@@H](Cc1ccccc1)C(N)=O` [Compound 218, Ac-Phe-Eep-Pro-cha-Bta-Phe-NH2] (Ac-F[X7]P[dCha][Bta]F-NH2) the figure was 50 to 200 nM; with `CC(=O)N[C@@H](Cc1ccccc1)C(=O)N[C@@H](CCNC1=NCCN1)C(=O)N1CC[C@H]1C(=O)N[C@H](CC1CCCCC1)C(=O)N[C@@H](Cc1csc2ccccc12)C(=O)N[C@@H](Cc1ccccc1)C(N)=O` [Compound 219, Ac-Phe-Fcn-Aze-cha-Bta-Phe-NH2] (Ac-F[X3][Aze][dCha][Bta]F-NH2), 10 to 20 nM; with `CC(=O)N[C@@H](Cc1ccccc1)C(=O)N[C@@H](CCNC1=NCCN1)C(=O)N1CCC[C@H]1C(=O)N[C@H](CC1CCCCC1)C(=O)N[C@@H](Cc1csc2ccccc12)C(=O)N[C@@H](Cc1ccccc1)C(N)=O` [Compound 220, Ac-Phe-Fcn-Pro-cha-Bta-Phe-NH2] (Ac-F[X3]P[dCha][Bta]F-NH2), 10 to 20 nM. The figure for `CC(=O)N[C@@H](Cc1ccccc1)C(=O)N[C@@H](CNC1=NCCN1)C(=O)N1CCC[C@H]1C(=O)N[C@H](CC1CCCCC1)C(=O)N[C@@H](Cc1csc2ccccc12)C(=O)N[C@@H](Cc1ccccc1)C(N)=O` [Compound 222, Ac-Phe-Fco-Pro-cha-Bta-Phe-NH2] (Ac-F[X4]P[dCha][Bta]F-NH2) is 50 to 200 nM; for `CC(=O)N[C@@H](Cc1ccccc1)C(=O)N[C@@H](CCCN(C1=NCCN1)C1=NCCN1)C(=O)N1CC[C@H]1C(=O)N[C@H](CC1CCCCC1)C(=O)N[C@@H](Cc1csc2ccccc12)C(=O)N[C@@H](Cc1ccccc1)C(N)=O` [Compound 223, Ac-Phe-Fcp-Aze-cha-Bta-Phe-NH2] (Ac-F[X2][Aze][dCha][Bta]F-NH2) it is 20 to 50 nM; for `CC(=O)N[C@@H](Cc1ccccc1)C(=O)N[C@@H](CCCNC1=NCCN1)C(=O)N1CC[C@H]1C(=O)N[C@H](CC1CCCCC1)C(=O)N[C@@H](Cc1csc2ccccc12)C(=O)N[C@@H](Cc1ccccc1)C(N)=O` [Compound 224, Ac-Phe-Ffa-Aze-cha-Bta-Phe-NH2] (Ac-F[Orn(2-imidazolinyl)][Aze][dCha][Bta]F-NH2) it is 20 to 50 nM. With `CC(=O)N[C@@H](Cc1ccccc1)C(=O)N[C@@H](CCCNC1=NCCN1)C(=O)N1CCC[C@H]1C(=O)N[C@H](CC1CCCCC1)C(=O)N[C@@H](Cc1csc2ccccc12)C(=O)N[C@@H](Cc1ccccc1)C(N)=O` [Compound 225, Ac-Phe-Ffa-Pro-cha-Bta-Phe-NH2] (Ac-F[Orn(2-imidazolinyl)]P[dCha][Bta]F-NH2) the figure was 20 to 50 nM; with `CC(=O)N[C@@H](Cc1ccccc1)C(=O)N[C@@H](CCCNC1=NCCN1)C(=O)N1CCC[C@H]1C(=O)N[C@H](CCC(C)C)C(=O)N[C@@H](Cc1csc2ccccc12)C(=O)N[C@@H](Cc1ccccc1)C(N)=O` [Compound 226, Ac-Phe-Ffa-Pro-hle-Bta-Phe-NH2] (Ac-F[Orn(2-imidazolinyl)]P[d(hLeu)][Bta]F-NH2), 10 to 20 nM; with `CC(=O)N[C@@H](Cc1ccccc1)C(=O)N[C@@H](CCCNS(C)(=O)=O)C(=O)N1CCC[C@H]1C(=O)N[C@H](CC1CCCCC1)C(=O)N[C@@H](Cc1csc2ccccc12)C(=O)N[C@@H](Cc1ccccc1)C(N)=O` [Compound 227, Ac-Phe-G23-Pro-cha-Bta-Phe-NH2] (Ac-F[Orn](Ms)P[dCha][Bta]F-NH2), 50 to 200 nM.

Take `CC(=O)N[C@@H](Cc1ccccc1)C(=O)N[C@@H](Cc1ccc(NC(=N)N)cc1)C(=O)N1CCC[C@H]1C(=O)N[C@H](CC1CCCCC1)C(=O)N[C@@H](Cc1csc2ccccc12)C(=O)N[C@@H](Cc1ccccc1)C(N)=O` [Compound 228, Ac-Phe-Guf-Pro-cha-Bta-Phe-NH2] (Ac-F[Phe(4-guanidino)]P[dCha][Bta]F-NH2): the IC50 was 20 to 50 nM. Take `CC(=O)N[C@@H](Cc1ccccc1)C(=O)N[C@@H](CCCCNC(=N)N)C(=O)N1CC[C@H]1C(=O)N[C@H](CC1CCCCC1)C(=O)N[C@@H](Cc1csc2ccccc12)C(=O)N[C@@H](Cc1ccccc1)C(N)=O` [Compound 229, Ac-Phe-Har-Aze-cha-Bta-Phe-NH2] (Ac-F[hArg][Aze][dCha][Bta]F-NH2): the IC50 was in the range of 10 to 20 nM. For `CC(=O)N[C@@H](Cc1ccccc1)C(=O)N[C@@H](Cc1c[nH]cn1)C(=O)N1CCC[C@H]1C(=O)N[C@H](CC1CCCCC1)C(=O)N[C@@H](Cc1csc2ccccc12)C(=O)N[C@@H](Cc1ccccc1)C(N)=O` [Compound 230, Ac-Phe-His-Pro-cha-Bta-Phe-NH2] (Ac-FHP[dCha][Bta]F-NH2), the IC50 lay within 50 to 200 nM. For the molecule `CC(=O)N[C@@H](Cc1ccccc1)C(=O)N[C@@H](CCNC(=N)N)C(=O)N1CCC[C@H]1C(=O)N[C@H](CC1CCCCC1)C(=O)N[C@@H](Cc1csc2ccccc12)C(=O)N[C@@H](Cc1ccccc1)C(N)=O` [Compound 231, Ac-Phe-L22-Pro-cha-Bta-Phe-NH2] (Ac-F[Agb]P[dCha][Bta]F-NH2), the IC50 is 10 to 20 nM.

In the case of `CC(=O)NCCC[C@H](NC(=O)[C@H](Cc1ccccc1)NC(C)=O)C(=O)N1CCC[C@H]1C(=O)N[C@H](CC1CCCCC1)C(=O)N[C@@H](Cc1csc2ccccc12)C(=O)N[C@@H](Cc1ccccc1)C(N)=O` [Compound 232, Ac-Phe-OrA-Pro-cha-Bta-Phe-NH2] (Ac-F[Orn](Ac)P[dCha][Bta]F-NH2), the IC50 is 50 to 200 nM. For `CCN(CC)CCC[C@H](NC(=O)[C@H](Cc1ccccc1)NC(C)=O)C(=O)N1CCC[C@H]1C(=O)N[C@H](CC1CCCCC1)C(=O)N[C@@H](Cc1csc2ccccc12)C(=O)N[C@@H](Cc1ccccc1)C(N)=O` [Compound 233, Ac-Phe-OrE-Pro-cha-Bta-Phe-NH2] (Ac-F[X5]P[dCha][Bta]F-NH2), the IC50 lay within 50 to 200 nM.

With `CC(=O)N[C@@H](Cc1ccccc1)C(=O)N[C@@H](CCCN)C(=O)N1CC[C@H]1C(=O)N[C@H](CCC(C)C)C(=O)N[C@@H](Cc1csc2ccccc12)C(=O)N[C@@H](Cc1ccccc1)C(N)=O` [Compound 234, Ac-Phe-Orn-Aze-hle-Bta-Phe-NH2] (Ac-F[Orn][Aze][d(hLeu)][Bta]F-NH2), the IC50 was in the range of 20 to 50 nM. Take `CC(=O)N[C@@H](Cc1ccccc1)C(=O)N[C@@H](CCCN)C(=O)N1C[C@@H](O)C[C@H]1C(=O)N[C@H](CC1CCCCC1)C(=O)N[C@@H](Cc1csc2ccccc12)C(=O)N[C@@H](Cc1ccccc1)C(N)=O` [Compound 235, Ac-Phe-Orn-Chy-cha-Bta-Phe-NH2] (Ac-F[Orn][cisHyp][dCha][Bta]F-NH2): the IC50 fell in the range of 50 to 200 nM. For the molecule `CC(=O)N[C@@H](Cc1ccccc1)C(=O)N[C@@H](CCCN)C(=O)N1C[C@@H](O)C[C@H]1C(=O)N[C@H](CCC(C)C)C(=O)N[C@@H](Cc1ccc(F)cc1)C(=O)N[C@@H](Cc1ccccc1)C(N)=O` [Compound 236, Ac-Phe-Orn-Chy-hle-Pff-Phe-NH2] (Ac-F[Orn][cisHyp][d(hLeu)][Phe(4-F)]F-NH2), the IC50 is 50 to 200 nM. For `CCCN(CC(=O)N[C@H](CC1CCCCC1)C(=O)N[C@@H](Cc1csc2ccccc12)C(=O)N[C@@H](Cc1ccccc1)C(N)=O)C(=O)[C@H](CCCN)NC(=O)[C@H](Cc1ccccc1)NC(C)=O` [Compound 237, Ac-Phe-Orn-G24-cha-Bta-Phe-NH2] (Ac-F[Orn][NPrGly][dCha][Bta]F-NH2), the IC50 was 50 to 200 nM.

For the origin of these results see US20080161232A1, “C5a Receptor Antagonist” (JERINI AG, priority 2005, published 2008).
